Experimental data as given in paper PMC10663510 (Scientific Reports, 2023).

T1: MSMEG-3765 (TetR-like repressor) (Mycolicibacterium (Mycobacterium) smegmatis mc2 155?), ORF:4079dac7
T1 sequence: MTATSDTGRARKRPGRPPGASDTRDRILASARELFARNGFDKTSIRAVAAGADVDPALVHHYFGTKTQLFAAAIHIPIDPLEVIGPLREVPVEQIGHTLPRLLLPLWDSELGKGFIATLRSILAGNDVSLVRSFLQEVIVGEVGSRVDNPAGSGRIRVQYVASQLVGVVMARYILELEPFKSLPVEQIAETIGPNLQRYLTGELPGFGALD


Columns and labels:
[1] = target: T2, MSMEG-3765 (TetR-like repressor) (Mycolicibacterium smegmatis, UniProt A0QYS0); assay: EMSA, release of […] bp operator DNA; type: binding; conditions: 0.2 pmol DNA, 4 pmol protein, 400 or 4000 pmol drug in 20 ul; 20 mM HEPES pH 8.0, 75 mM NaCl, 10 mM MgCl2, 30 °C
T2 construct: gene MSMEG_3765; homodimer; 211 residues per chain in model

[2] = tested on: T1, MSMEG-3765 (TetR-like repressor) (Mycolicibacterium (Mycobacterium) smegmatis mc2 155?), ORF:4079dac7; assay: EMSA; conditions: 20 mM HEPES pH 8.0, 75 mM NaCl, 10 mM MgCl2, 5% glycerol; 20 ul, 30 C 10 min; native 8% PAGE at 4 C
[3] = target: the molecule itself; assay: circular dichroism (spectrum and thermal unfolding) compared with data back-calculated from monomer and dimer models; MSMEG-3765 in 20 mM Tris HCl, 500 mM NaCl, pH 8; CD spectra 200-260 nm at 5-85 °C; melting temperature and spectrum compared with predictions (SCooP, PDBMD2CD) from predicted monomeric and dimeric structures

Molecule | EMSA, release of 133 bp operator DNA [1] | also measured
O=C(O)c1cn(C2CC2)c2cc(N3CCNCC3)c(F)cc2c1=O [ciprofloxacin] | rifampicin or ciprofloxacin are able to directly interfear with the binding of the MSMEG-3765 TetR | –
CO[C@H]1/C=C/O[C@@]2(C)Oc3c(C)c(O)c4c(O)c(c(/C=N/N5CCN(C)CC5)c(O)c4c3C2=O)NC(=O)/C(C)=C\C=C\[C@H](C)[C@H](O)[C@@H](C)[C@@H](O)[C@@H](C)[C@H](OC(C)=O)[C@@H]1C [rifampicin] | rifampicin or ciprofloxacin are able to directly interfear with the binding of the MSMEG-3765 TetR | –
CTGCTGGAGTCCGCCGCCTGAGCCAGGCGTCGCCGACGCCGAAATGTGTCGACGCATCGTCTTCCCACCGGACGACGGCAGGCCTAGAATTCATTGCATGATGACTTCATCGCGCGATGAATTGTCAGCGACGGGGCCCG (double strand) [133 bp MSMEG_3762 upstream operator fragment] | – | binding [2]: binds
TetR-like MSMEG-3765 repressor (natural protein, also called MSMEG-3765 TetR recombinant protein; TetR-like MSMEG-3765 protein) MTATSDTGRARKRPGRPPGASDTRDRILASARELFARNGFDKTSIRAVAAGADVDPALVHHYFGTKTQLFAAAIHIPIDPLEVIGPLREVPVEQIGHTLPRLLLPLWDSELGKGFIATLRSILAGNDVSLVRSFLQEVIVGEVGSRVDNPAGSGRIRVQYVASQLVGVVMARYILELEPFKSLPVEQIAETIGPNLQRYLTGELPGFGALD | – | binding result [3]: binds
